Measurements taken from patent publication US20110294992A1, “METAL RESPONSIVE MRI-AGENTS” (The Regents of the University of California, priority 2010, published 2011).
Like-named read-outs stand apart in the source and are kept apart here. Marks after values point to notes of the source that are not given here. Blank lines part the entries; values can stand above or below the molecule they belong to.

Columns and labels:
[1] = Dysprosium-induced 17O NMR shift (DIS) experiments for q; assay type: physicochemical; conditions: for −Δ ppm/[Dy] (DIS slope): no Cu^+
Description: FIG. 8. Plot of [DyCG2] vs. −Δ ppm of the ^17O signal of H2O in the absence and presence of 1 equiv Cu^+. Spectra were acquired at room temperature in 20 mM HEPES buffer, pH 7, at a ^17O Larmor frequency of 67.8 MHz.
To circumvent these issues, we turned our attention to an alternative method for obtaining q values, namely the application of ^17O NMR spectroscopy to Dy^3+ analogs of the CG sensors (DyCG2-6).^114 Specifically, interactions of water ligands with paramagnetic Dy^3+ ions lead to an upfield shift of the ^17O signals of H2O in a manner proportional to both the concentration of Dy^3+ and q. Moreover, this lanthanide-induced shift is largely insensitive to the non-water ligands coordinated to the paramagnetic metal center.^114 Dysprosium-induced shift (DIS) experiments for CG2 and CG3 were performed in 20 mM HEPES buffered to pH 7; CG4 and CG5 spectra were acquired in 10% acetonitrile in 20 mM HEPES buffered to pH 7 owing to solubility and stability of the Cu^+-bound complexes at higher Dy^3+ concentrations required for the DIS measurements (1-200 mmol/kg H2O). Dy concentrations were calculated using molality (with respect to H2O) since the ^17O shift represents the interaction between Dy^3+ and H2O; addition of CH3CN aids in stabilizing certain complexes but should not affect the DIS. The spectral results were calibrated to a DyCl3 standard (q=9) to determine the number of bound water molecules for the CG sensors with and without added Cu^+. A plot of varying DyCl3 concentrations versus DIS in pH 7 HEPES buffer has a slope of 324 ppm/(mol/kg H2O), which corresponds to a 36 ppm/(mol/kg H2O) shift per bound water molecule.
The effects of DyCG2 on the chemical shift of ^17O-labeled H2O were determined in the absence and presence of 1 equiv Cu^+ at various concentrations of Dy^3+ (FIG. 8). In the absence of Cu^+, the measured ^17O shift response for DyCG2 is 9 ppm/(mol/kg H2O), corresponding to q=0.3. When 1 equiv of Cu^+ is added, the observed shift response increases to 72 ppm/(mol/kg H2O), corresponding to q=2.0. […] DIS measurements of DyCG4 and DyCG5 without Cu^+ show slopes of 7 ppm/(mol/kg H2O) (q=0.2) and 12 ppm/(mol/kg H2O) (q=0.3), respectively. Cu^+ binding increases the DIS slopes for DyCG4 and DyCG5 to […] ([…]) and 41 ppm/(mol/kg H2O) (q=1.0), respectively.

[2] = see reference 90, cited from earlier work
[3] = in water, measured at 10 MHz; cited from earlier work
[4] = Longitudinal relaxivity (r1) from T1 measurements at 60 MHz, absence of copper; assay type: physicochemical; conditions: no copper; 60 MHz, 20 mM HEPES buffer, pH 7, 37° C., 0.2 mM Gd^3+
Description: (§1) The longitudinal relaxivity values for the CG contrast agents in the absence or presence of copper ions were determined using T1 measurements at 60 MHz. Studies were performed at 37° C. in 20 mM HEPES buffered to pH 7, and solutions of the purified CG sensors for relaxivity experiments contained 0.2 mM Gd^3+ as determined by ICP-OES. Spectroscopic data are collected in Table 1.
Nuclear magnetic relaxation dispersion (NMRD) experiments provide supporting evidence for this proposal (vide infra).

[5] = Longitudinal relaxivity (r1) turn-on response to Cu+ from T1 measurements at 60 MHz; assay type: physicochemical; conditions: pH 7, 37° C.
Description: as §1
Upon addition of up to 1 equiv of copper ions, the relaxivity values of the CG contrast agents increase, establishing the ability of these probes to sense copper using the MR modality (Table 1, FIG. 3). CG2, CG3, CG4, and CG5 respond to Cu^+ with relaxivity increases ranging from 92% to 360%. […] These values represent the largest relaxivity enhancements observed to date for metal-activated MR contrast agents and a ca. 9-fold improvement in copper ion response compared to CG1 (41% increase). The observed differences in turn-on Cu^+ responses for benzyl-substituted CG4 (290% increase) versus methyl-substituted CG5 (92% increase) with the same pyridyl-thioether receptor show the marked effects that small peripheral substitutions can have on relaxivity properties.

[6] = Electrochemical Cu2+/Cu+ reduction potentials of copper-bound CG complexes; assay type: physicochemical; conditions: PBS buffer, pH 7.4
Description: CG6 is a unique member of the CG family that is equally responsive to both Cu^+ and Cu^2+. Addition of either Cu^+ or Cu^2+ to CG6 triggers a maximum 73% relaxivity turn-on from r1=2.2 mM^−1s^−1 to r1=3.8 mM^−1s^−1. […] On the other hand, copper-bound CG6, which responds to both Cu^+ and Cu^2+, has the least positive Cu^2+/Cu^+ reduction potential at +0.13 V.

[7] = Apparent Kd for Cu+ by UV-visible absorption with competing ligand thiourea; assay type: binding; conditions: 20 mM HEPES buffer, pH 7, 25° C., 1:1 stoichiometry assumed, read-out: Kd (apparent dissociation constant)
Description: FIG. 5. Normalized absorbance response of 0.2 mM CG2-6 to buffered Cu^+ (CG2-5) or Cu^2+ (CG6) solutions for Kd value determination. Spectra were acquired in 20 mM HEPES, pH 7.

[8] = Metal ion selectivity of relaxivity response (competing metal ions alone or with added copper); assay type: physicochemical; conditions: relaxivity at 60 MHz, 20 mM HEPES, pH 7, 37° C.
Description: FIG. 6. Relaxivity responses of CG2 to various metal ions. White bars represent the addition of an excess of the appropriate metal ion (10 mM for Na^+, 2 mM for K^+, Mg^2+, and Ca^2+, and 0.2 mM for Fe^2+, Fe^3+, Cu^2+) to a 0.2 mM solution of CG2. Response to Zn^2+ was measured both at 0.2 mM Zn^2+ (Zn^2+1×) and 2 mM Zn^2+ (Zn^2+10×). Black bars represent the subsequent addition of 0.2 mM Cu^+ to the CG2 solution. Relaxivity measurements were acquired at 37° C. in 20 mM HEPES buffer, pH 7, at a proton Larmor frequency of 60 MHz.
The potential ability of this new family of CG sensors to sense bioavailable copper pools in either or both its predominant oxidation states represents a significant advance over the initial CG1 compound.

[9] = Nuclear magnetic relaxation dispersion (NMRD) profiles, Solomon-Bloembergen-Morgan fit; assay type: physicochemical; conditions: copper free
Description: FIG. 9. ^1H Nuclear magnetic relaxation dispersion profiles of CG3 and CG3+Cu^+ acquired at 25° C. The solid lines represent the best fit profiles.
As a secondary, independent set of experiments to further probe the mechanisms of copper ion sensing by the CG contrast agents, we also performed nuclear magnetic relaxation dispersion (NMRD) measurements of these sensors in the absence and in the presence of copper ions using a field cycling relaxometer (FIG. 9). The profiles obtained were analyzed following Solomon-Bloembergen-Morgan theory^36-38 for the inner-sphere relaxivity and the Freed model^115 for the outer-sphere relaxivity, fixing the diffusion coefficient (D) at […], the distance between Gd^3+ and the inner sphere water protons (r) at 3.1 Å, and the inner sphere exchange lifetime (τM) at 160 ns, the reported value for the parent complex Gd^3+-DO3A. Profiles were obtained for all compounds in the copper-free state. Profiles in the presence of Cu^n+ were obtained for CG2-4 (Cu^+) and CG6 (Cu^2+).
In fact, the measured outer-sphere relaxivities were so low that, in order to obtain a reasonable fit, the distance of closest approach of outer-sphere water protons (a) was allowed to vary. The distances obtained for the CG complexes (4.2-4.8 Å) were markedly longer than what is observed for typical Gd^3+ contrast agents with greater water access (3.8-4 Å). These values correlate with the copper-free relaxivities of CG2-6; longer a values give lower relaxivities and shorter a values give higher relaxivities. For Cu^+-sensing agents CG2-4, the estimated change in q of 2 as determined by DIS measurements was also observed in the fitted NMRD data. In fact, any attempt to fit the observed NMRD profiles with q=1 led to very poor agreement between experimental and calculated values. The change in q of 1 for CG6 upon addition of Cu^2+ as determined by NMRD is consistent with the lower turn-on response observed with this complex compared to CG2-4. The reduced q modulation for CG6 relative to CG2-4 could indicate that the carboxylic acid moiety used for Cu^2+ binding also interacts with the Gd^3+ center in the Cu^2+-bound state. The fitted rotational correlation times (τR) for copper-bound CG complexes all fall within the range expected for Gd^3+ complexes with molecular weights of 700-800 D. τR values for copper-free CG2-6 were fixed to values close to their copper-bound analogues as fits of NMRD data for q=0 complexes are not sensitive to small changes in τR. The values of Δ^2 (average quadratic transient zero field splitting), τv (electronic correlation time), and τs0 (electronic relaxation time at zero field), which govern the electronic relaxation time, are relatively similar to each other. These NMRD values are closer to those of Gd^3+-DTPA than Gd^3+-DOTA, reflecting the asymmetry of CG2-6.^64

−Δ ppm/[Dy] (DIS slope) ([1]; 20 mM HEPES, pH 7): 324 ppm/(mol/kg H2O) | −Δ ppm/[Dy] (DIS slope) ([1]; 10% CH3CN in 20 mM HEPES pH 7): 362 ppm/(mol/kg H2O) | shift per bound water molecule ([1]; 10% acetonitrile in 20 mM pH 7 HEPES buffer): 40 ppm/(mol/kg H2O) | shift per bound water molecule ([1]; pH 7 HEPES buffer): 36 ppm/(mol/kg H2O)
Structure (SMILES): [Cl][Dy]([Cl])[Cl] [DyCl3, reference compound]
q of calibration standard ([2]; 20 mM HEPES, pH 7): 9^a | q of calibration standard ([2]; 10% CH3CN in 20 mM HEPES pH 7): 9^a

Structure (SMILES): [Cu+2] [Cu^2+]
r1 value [3]: 1.0 mM⁻¹ s⁻¹

r1 (no Cu) [4]: 1.2 mM⁻¹ s⁻¹ | r1 (1 equiv Cu) ([5]; 1 equiv Cu^+, 20 mM HEPES buffer): 2.3^b mM^−1s^−1 | Cu^2+/+ E1/2 [6]: 0.34 V vs. SHE | Kd [7]: 0.032 nM | τs0 (electronic relaxation time at zero field) [9]: 95 ps | r1p 20 MHz 25° C. ([9]; 0.5 mM, 20 mM HEPES pH 7): 1.6 mM⁻¹ s⁻¹ | a (distance of closest approach of outer-sphere water protons) ([9]; best-fit value): 4.8 ± 0.12 Å | Δ^2 (average quadratic transient zero field splitting) ([9]; best-fit value): 3.5 ± 0.8 10^19 s^−2 | τv (electronic correlation time) ([9]; best-fit value): 25 ± 4.2 ps | q ([9]; fixed in the fitting procedure): 0^c | τR (rotational correlation time) ([9]; not experimentally determined, assumed equal to corresponding q ≠ 0 complex (CG5: average of the other complexes)): 100^e ps
Structure (SMILES): CCSCCN(C)Cc1cccc(CN2CCN(CC(=O)[O-])CCN(CC(=O)[O-])CCN(CC(=O)[O-])CC2)n1.[Gd+3] [CG5]
% increase in r1 ([5]; 1 equiv Cu^+ vs no Cu, 20 mM HEPES): 92% | redox specificity of relaxivity response (Cu^+ vs Cu^2+) [8]: give turn-on relaxivity increases with Cu^+ but do not respond to Cu^2+
